Usually pIC50 stands for the negative decadic logarithm of the IC50, by convention in mol/L. Higher therefore signals a low IC50.

Holding throughout (assay type): functional, cell-based
Assay [1] relates to DLD-1. Description: Growth inhibition of human DLD1 cells.
Assay [2] has as its system DLD-1. Description: Effect on ERK5 mRNA expression levels in human DLD1 cells by semi-qRT PCR.
Assay [3] deals with DLD-1. Description: Induction of apoptosis in human DLD1 cells assessed as activation of pan-caspase at 20 uM by Western blot.
Assay [4] relates to DLD-1. Description: Induction of apoptosis in human DLD1 cells assessed as release of endonuclease-G at 20 uM after 6 to 24 hrs by Western blot. Background: A western blot detects proteins with antibodies after separation by electrophoresis.
Assay [5] deals with DLD-1. Description: Decrease in Erk5 expression levels in human DLD1 cells by Western blot.
In assay [6] the test system is DLD-1. Description: Induction of apoptosis in human DLD1 cells assessed as activation of caspase-3 at 20 uM by Western blot.
The subject of assay [7] is DLD-1. Description: Induction of apoptosis in human DLD1 cells assessed as release of apoptosis-inducing factor at 20 uM after 6 to 24 hrs by Western blot.
Assay [8] concerns DLD-1. Description: Cytotoxicity against human DLD1 cells after 24 hrs by Trypan blue exclusion test. The conditions noted are these: DLD-1, 24 h.
For assay [9], the system named is DLD-1. Description: Reduction in cMyc level in human DLD1 cells by Western blot.
Assay [10] relates to DLD-1. Description: Cytotoxicity against human DLD1 cells assessed as decrease in cell number at 20 uM after 24 hrs by Trypan blue exclusion test.
Assay [11] has as its system DLD-1. Description: Cytotoxicity against human DLD1 cells at 2 uM after 24 hrs by Trypan blue exclusion test.
Assay [12] deals with DLD-1. Description: Induction of apoptosis in human DLD1 cells assessed as activation of bax protein at 20 uM by Western blot.
Assay [13] relates to DLD-1. Description: Apoptotic activity in human DLD1 cells at 15 uM after 24 hrs by Trypan blue exclusion test.
Assay [14] deals with DLD-1. Description: Induction of apoptosis in human DLD1 cells assessed as release of endonuclease-G after 6 hrs by Western blot.
Assay [15] concerns DLD-1. Description: Increase in p-p38 levels in human DLD1 cells after 1 to 3 hrs by Western blot.
Assay [16] concerns DLD-1. Description: Induction of apoptosis in human DLD1 cells assessed as activation of bcl2 at 20 uM by Western blot.

pIC50: −log10 of the molar value. Activity calls are given as the source filed them. No cut-off for these calls is given here.

`O=c1[nH]cc(F)c(=O)[nH]1` [FLUOROURACIL] showed a pIC50 in [1] of 5.35.

In the case of `COc1c(O)cc2oc3cc(O)c(CC=C(C)C)c(O)c3c(=O)c2c1CC=C(C)C` [MANGOSTIN], the result in assay [2], in assay [3], in assay [6], in [7], in assay [12] and in [16] was inactive. The outcome in [4], in assay [5], in assay [9], in [10], in assay [11] and in [13] was Active. The outcome in [15] was Active. Further, the negative logarithm of the IC50 (pIC50) in [8] was 5.12. Besides, the Activity result in assay [14] was “Dose-dependent effect”.

(Values after ChEMBL document CHEMBL1149613, “Characterized mechanism of alpha-mangostin-induced cell death: caspase-independent apoptosis with release of endonuclease-G from mitochondria and increased miR-143 expression in human colorectal cancer DLD-1 cells” (Bioorg Med Chem, 2007).)
